{"source": "patent US20250313544A1", "about": "“INHIBITORS OF GLUTATHIONE S-TRANSFERASE ZETA 1 (GSTZ1) AND METHODS OF USE” (H. LEE MOFFITT CANCER CENTER AND RESEARCH INSTITUTE, INC., priority 2022, published 2025)", "key": {"H1792 cells [1]": {"tested_on": "H1792 cells", "assay": "Protein tyrosine reactivity profiling (SuTEx probe HHS-482, LC-MS/MS) in H1792 cells", "assay_type": "cell-based, human", "conditions": "24 h treatment, log2 ratio ≤−0.585 or ≥0.585, p<0.05 vs. vehicle", "experimental": "Cell lysates were prepared and diluted to 2 mg/mL in PBS. Samples were treated with HHS-482 (a SuTEx probe) at 25 μM for 1 h at room temperature. Labeled proteomes were subjected to CuAAC conjugation with Biotin-Azide conjugate (200 μM) by mixing with TCEP (1 mM), TBTA (100 μM), and CuSO4 (1 mM). After 1 h incubation, resulting mixtures were subjected to MeOH: CHCl3 extraction as described above. Protein discs were reconstituted with urea buffer supplemented with 10% SDS. Samples were processed with NeutrAvidin beads, on-bead digestion with trypsin, and ZIPTIP purification as described above. Samples were dried in vacuum and prepared for LC-MS/MS analysis."}, "[2]": {"tested_on": "drug-refractory NSCLC cells (H1792, H520, HCC366)", "assay": "Cell viability assay (CellTiter-Glo) across drug-refractory NSCLC cell lines", "assay_type": "cell-based, human", "conditions": "single agent", "experimental": "(§1) Cells were seeded in Corning 384-well black walled/clear bottom microplates with a density of 1,000 cells/well and treated with indicated drugs and concentrations following cell attachment for 24 h. After 72 h or 96 h, as indicated, cell viability was evaluated with CellTiter-Glo (Promega, Madison, WI) according to manufacturer's recommendations. An M5 Spectramax plate reader (Molecular devices) was used to read the plates with 500 ms integration. Data was processed and analyzed using Excel and GraphPad Prism 9.0."}, "H1792 LUAD cells": {"tested_on": "H1792 LUAD cells", "assay": "Chemical proteomics target profiling in live H1792 cells (label-free LC-MS/MS, comparison with control probe 22 and panel-wide cross-comparison)", "assay_type": "binding, human", "conditions": "for prominent target protein predominantly enriched by the probe: compared to control probe and probe panel; for number of probe-enriched target candidates over control probe 22 (promiscuity): log2 ratio vs. control probe >2.32; for other proteins also enriched by the probe: log2 ratio>2.32 and enrichment score>2", "experimental": "(§2) Cells were grown in 10 cm dishes to ˜90% confluence at the time of treatment. Cells were carefully washed twice with Dulbecco's phosphate buffered saline (DPBS) and replenished with fresh serum-free RPMI 1640 media containing indicated probes ([…]), competitors, or DMSO. Without competitors, cells were incubated with probes for 30 min at 37° C. and then exposed to 365 nm UV light for 15 min on ice. With competitors, cells were pre-treated with competitors for 30 min and photoactivated for 15 min. Probes were then added to cells for an additional 30 min incubation. For no UV experiments, cells were incubated for 15 min under ambient light. Cells were harvested in cold DPBS and pellets were washed with cold DPBS (2 X). Pellets were either directly processed or kept frozen at −80° C. until use. Cells pellets were lysed for 30 min in cold DPBS (100-300 uL) per culture dish supplemented with 1% NP-40, followed by sonication (5 pulses, 4 s on, 20 s off, output setting=4). Lysates were centrifuged at 20,817×g for 20 min, and supernatant (soluble proteome) was used for further processing. Protein concentrations were determined using Bradford assays.\nProtein pellets were transferred to 5 mL microcentrifuge tubes and then resuspended in a freshly-prepared solution of proteomics-grade urea (320 μL, 6 M Urea in DPBS) containing 80 μL of 10% SDS and dissolved by sonication. To each solution, 4 mL DPBS was added (final conc: 0.2%, total volume) and incubated with pre-equilibrated NeutrAvidin agarose resin (100 μL 1:1 slurry, Pierce, Cat. 29201) for 2 hrs at ambient temperature on a rotator. The NeutrAvidin beads were collected by centrifugation (1,400×g, 2 min) and sequentially washed with 0.2% SDS in DPBS (2×2 mL), detergent-free DPBS (2×2 mL), and 50 mM ammonium bicarbonate (AMBIC, 2×2 mL). Beads were resuspended with 200 μL 50 mM AMBIC and incubated with TCEP 50 μL (100 mM in 50 mM AMBIC) for 30 min at 37° C. Iodoacetamide (50 μL of 200 mM in 50 mM AMBIC) was added and incubated for 30 min at ambient temperature. The beads were again washed with 2×1 mL 50 mM AMBIC and resuspended in 100 μL of fresh 50 mM AMBIC and treated with 2 μg of sequencing grade modified trypsin (Promega, #V5111) at 37° C. overnight. These samples were acidified with formic acid (final conc: 5%) and centrifuged (1,000×g, 2 min). The supernatant was collected and desalted through ZIPTIPs, and the desalted peptide mixture were dried in vacuum and reconstituted with HPLC buffer (2% acetonitrile, 0.1% formic acid) for LC-MS/MS analysis. Tryptic peptides of avidin were excluded from MS2 analysis to maximize detection of the protein targets (Table S7). Samples were analyzed using LC-MS/MS after being spiked with 50 fmol/uL PRTC standards (88320, Pierce Retention Time Calibration Mixture, Thermo Fisher, MA). A nanoflow ultra high performance liquid chromatograph and nanoelectrospray orbitrap mass spectrometer (RSLCnano and Q Exactive plus, Thermo) were used for LC-MS/MS. The sample was loaded onto a pre-column (C18 PepMap100, 2 cm length×100 μm ID packed with C18 reversed-phase resin, 5 μm particle size, 100 Å pore size) and washed for 8 minutes with aqueous 2% acetonitrile and 0.1% formic acid. Trapped peptides were eluted onto the analytical column, (C18 PepMap100, 25 cm length×75 μm ID, 2 μm particle size, 100 Å pore size, Thermo). A 120-minute gradient was programmed as: 95% solvent A (aqueous 2% acetonitrile+0.1% formic acid) for 8 minutes, solvent B (aqueous 90% acetonitrile+0.1% formic acid) from 5% to 38.5% in 90 minutes, then solvent B from 50% to 90% B in 7 minutes and held at 90% for 5 minutes, followed by solvent B from 90% to 5% in 1 minute and re-equilibration for 10 minutes using a flow rate of 300 nl/min. Spray voltage was 1900 V. Capillary temperature was 275° C. S lens RF level was set at 40. Top 16 tandem mass spectra were collected in a data-dependent manner. The resolution for MS and MS/MS were set at 70,000 and 17,500 respectively. […]"}, "H1792 cells [3]": {"tested_on": "H1792 cells", "assay": "In-gel fluorescence analysis of probe-labeled proteins after photocrosslinking in live H1792 cells", "assay_type": "binding, human", "conditions": "compared to vehicle", "experimental": "as §2\nTo 1 mg of protein, were added a mixture of TBTA (Tris((1-benzyl-4-triazolyl)methyl)amine, 60 μL/sample, 1.7 mM in 1:4 DMSO: t-BuOH stock), CuSO4 (20 μL/sample, 50 mM in H2O), TCEP (tris(2-carboxyethyl) phosphine, 20 μL/sample, 50 mM in DPBS, made fresh) and Biotin-Azide conjugate (10 μL/sample, 10 mM in DMSO stock). Each sample was rotated at room temperature for 2 h. To each resultant a cold 4:1 mixture (600 μL) of methanol (MeOH)/chloroform (CHCl3) was added followed by cold PBS (100 μL) on ice. The resulting cloudy mixture was centrifuged (5,000×g, 10 min, 4° C.) to fractionate the protein interface from the organic and aqueous solvent layers. A MeOH:CHCl3 (1:1, 1 mL, 2×) mixture was used to wash protein discs thoroughly. Protein discs were sonicated in cold 4:1 MeOH:CHCl3 (2 mL) mixture. The remaining precipitate was pelleted by centrifugation (5,000×g, 10 min, 4° C.). […] Gels were subjected to fluorescence imaging or Western Blotting."}, "[4]": {"tested_on": "H520 cells harboring amplified FGFR1", "assay": "Cell viability assay (CellTiter-Glo) in H520 cells", "assay_type": "cell-based, human", "experimental": "as §1"}, "[5]": {"tested_on": "H1792 cells harboring KRAS G12C", "assay": "Cell viability assay (CellTiter-Glo) in H1792 cells", "assay_type": "cell-based, human", "experimental": "as §1"}}, "data": [{"smiles": "C=CC(=O)N1CCN(c2nc(=O)n(-c3c(C)ccnc3C(C)C)c3nc(-c4c(O)cccc4F)c(F)cc23)[C@@H](C)C1", "note": "[sotorasib]", "values": [{"measurement": "number of proteins with significantly altered Tyr reactivity", "setting": "H1792 cells [1]", "value": 106, "unit": "proteins"}]}, {"smiles": "C#CCCC1(CCC(=O)Nc2ccc3c(c2)N(CC(C)C)C(=O)C(C)(C)CO3)N=N1", "note": "[Probe 7, 3-(3-(but-3-yn-1-yl)-3H-diazirin-3-yl)-N-(5-isobutyl-3,3-dimethyl-4-oxo-2,3,4,5-tetrahydrobenzo[b][1,4]oxazepin-7-yl)propanamide]", "values": [{"measurement": "cellular activity of probes (cell viability)", "setting": "[2]", "value": "displayed activity toward multiple tested cell lines"}, {"measurement": "prominent target protein predominantly enriched by the probe", "setting": "H1792 LUAD cells", "value": "MMGT1"}, {"measurement": "number of probe-enriched target candidates over control probe 22 (promiscuity)", "setting": "H1792 LUAD cells", "value": "most promiscuous"}]}, {"smiles": "C#CCCC1(CCC(=O)N2CCC(Oc3ncc(C(F)(F)F)cc3Cl)C2)N=N1", "note": "(stereo not drawn) [Probe 5, 3-(3-(but-3-yn-1-yl)-3/-diazirin-3-yl)-1-(3-((3-chloro-5-(trifluoromethyl)pyridin-2-yl)oxy)pyrrolidin-1-yl)propan-1-one]", "values": [{"measurement": "cellular activity of probes (cell viability)", "setting": "[2]", "value": "displayed activity toward multiple tested cell lines"}, {"measurement": "prominent target protein predominantly enriched by the probe", "setting": "H1792 LUAD cells", "value": "ME3"}, {"measurement": "number of probe-enriched target candidates over control probe 22 (promiscuity)", "setting": "H1792 LUAD cells", "value": "most promiscuous"}, {"measurement": "other proteins also enriched by the probe", "setting": "H1792 LUAD cells", "value": "FARSA, PTGR1, ME1, YIF1A, and SGPL1"}, {"measurement": "proteome labeling by probe (in-gel fluorescence)", "setting": "H1792 cells [3]", "value": "efficiently labeled a wide range of proteins"}]}, {"smiles": "C#CCCC1(CCC(=O)N2CC(Nc3ncccn3)C2)N=N1", "note": "[Probe 18, 3-(3-(but-3-yn-1-yl)-3H-diazirin-3-yl)-1-(3-(pyrimidin-2-ylamino)azetidin-1-yl)propan-1-one]", "values": [{"measurement": "number of probe-enriched target candidates over control probe 22 (promiscuity)", "setting": "H1792 LUAD cells", "value": "few"}]}, {"smiles": "C#CCCC1(CCC(=O)N2CCCC2COc2nc3ccccc3cc2C#N)N=N1", "note": "(stereo not drawn) [Probe 20, 2-((1-(3-(3-(but-3-yn-1-yl)-3H-diazirin-3-yl)propanoyl)pyrrolidin-2-yl)methoxy)quinoline-3-carbonitrile]", "values": [{"measurement": "cellular activity of probes (cell viability)", "setting": "[2]", "value": "displayed activity toward multiple tested cell lines"}]}, {"smiles": "CCN1CCN(c2ccc(Nc3cc(N(C)C(=O)Nc4c(Cl)c(OC)cc(OC)c4Cl)ncn3)cc2)CC1", "note": "[infigratinib, reference compound]", "values": [{"measurement": "cell response to targeted drug", "setting": "[4]; H520, FGFR1 overexpression", "value": "only partially respond"}]}, {"smiles": "C#CCCC1(CCC(=O)N2CCCCC2c2nnc(C(=O)OC)s2)N=N1", "note": "(stereo not drawn) [Probe 19, Methyl-5-(1-(3-(3-(but-3-yn-1-yl)-3H-diazirin-3-yl)propanoyl)piperidin-2-yl)-1,3,4-thiadiazole-2-carboxylate]", "values": [{"measurement": "number of probe-enriched target candidates over control probe 22 (promiscuity)", "setting": "H1792 LUAD cells", "value": "few"}]}, {"smiles": "C#CCCC1(CCC(=O)NCCCNC(=O)c2ccc3c4c(ncnc24)-c2ccccc2C3=O)N=N1", "note": "[Probe 21, N-(3-(3-(3-(but-3-yn-1-yl)-3H-diazirin-3-yl)propanamido)propyl)-7-oxo-7H-benzo[e]perimidine-4-carboxamide]", "values": [{"measurement": "cellular activity (cell viability)", "setting": "[4]; H520 cells, single agent", "value": "highly active"}, {"measurement": "cellular activity (cell viability)", "setting": "[5]; H1792 cells, single agent", "value": "highly active"}, {"measurement": "cellular activity of probes (cell viability)", "setting": "[2]", "value": "displayed activity toward multiple tested cell lines"}, {"measurement": "relative potency among active probes (cell viability)", "setting": "[2]", "value": "more potent"}, {"measurement": "number of candidate target proteins identified for the probe", "setting": "H1792 LUAD cells", "value": 5}, {"measurement": "proteome labeling by probe (in-gel fluorescence)", "setting": "H1792 cells [3]", "value": "efficiently labeled a wide range of proteins"}]}, {"smiles": "C#CCCC1(CCC(=O)N2CCN(Cc3nc(-c4cccs4)cs3)CC2)N=N1", "note": "[Probe 6, 3-(3-(but-3-yn-1-yl)-3H-diazirin-3-yl)-1-(4-((4-(thiophen-2-yl)thiazol-2-yl)methyl)piperazin-1-yl)propan-1-one]", "values": [{"measurement": "prominent target protein predominantly enriched by the probe", "setting": "H1792 LUAD cells", "value": "NDUFB11"}, {"measurement": "number of probe-enriched target candidates over control probe 22 (promiscuity)", "setting": "H1792 LUAD cells", "value": "most promiscuous"}, {"measurement": "other proteins also enriched by the probe", "setting": "H1792 LUAD cells", "value": "NDUFB10, AK3, and LTA4H"}]}, {"smiles": "C=CC(=O)N1CCN(c2ncnc3c(F)c(-c4c(O)cccc4F)c(Cl)cc23)CC1", "note": "[ARS1620, reference compound]", "values": [{"measurement": "cell response to targeted drug", "setting": "[5]; H1792, KRAS^G12C mutation", "value": "poorly responded"}]}, {"smiles": "C#CCCC1(CCC(=O)NC2CC(Oc3nccn4nc(C)cc34)CC(C)(C)C2)N=N1", "note": "(stereo not drawn) [Probe 2, 3-(3-(but-3-yn-1-yl)-3H-diazirin-3-yl)-N-(3,3-dimethyl-5-((2-methylpyrazolo[1,5-a]pyrazin-4-yl)oxy)cyclohexyl)propanamide]", "values": [{"measurement": "number of probe-enriched target candidates over control probe 22 (promiscuity)", "setting": "H1792 LUAD cells", "value": "most promiscuous"}]}]}
